Reference: US7182954B1, “Prebiotic oligosaccharides via alternansucrase acceptor reactions” (priority 2003, dated 2007)

How the values were obtained:
[1] = tested on: Bifidobacterium breve 15698; experiment: Oligosaccharide utilization (growth) by colonic bacteria; format: cell-based; settings: 0.5% oligosaccharide preparation, anaerobic, 5 days, 37° C
[2] = tested on: Clostridium perfringens 13124; format: cell-based; settings: 0.5% oligosaccharide preparation, anaerobic, 5 days, 37° C
[3] = tested on: Bifidobacterium boum 27917; experiment: Oligosaccharide utilization (growth) by colonic bacteria; format: cell-based; settings: 0.5% oligosaccharide preparation, anaerobic, 5 days, 37° C
[4] = tested on: Bifidobacterium adolescentis 15704; experiment: as above; format: cell-based; settings: 0.5% oligosaccharide preparation, anaerobic, 5 days, 37° C
[5] = tested on: Bifidobacterium bifidum 29521; experiment: as above; format: cell-based; settings: 0.5% oligosaccharide preparation, anaerobic, 5 days, 37° C
[6] = tested on: alternansucrase; experiment: Comparison of acceptor strengths with alternansucrase, relative amount of alternan formed; settings: for Alternan (Rel. %): 45 μL 10% (w/v) sucrose, 45 μL 10% (w/v) acceptor, 10 μL alternansucrase, pH 5.4, room temperature, less alternan = stronger acceptor; for acceptor strength for alternansucrase, in words: text summary of Table I
[7] = tested on: Lactobacillus casei 393; experiment: Oligosaccharide utilization (growth) by colonic bacteria; format: cell-based; settings: 0.5% oligosaccharide preparation, anaerobic, 5 days, 37° C
[8] = tested on: Bacteroides thetaiotaomicron 29148; format: cell-based; settings: 0.5% oligosaccharide preparation, anaerobic, 5 days, 37° C
[9] = tested on: Bifidobacterium adolescentis 15705; experiment: Oligosaccharide utilization (growth) by colonic bacteria; format: cell-based; settings: 0.5% oligosaccharide preparation, anaerobic, 5 days, 37° C
[10] = tested on: Bifidobacterium pseudocatenulatum 27919; experiment: as above; format: cell-based; settings: 0.5% oligosaccharide preparation, anaerobic, 5 days, 37° C
[11] = tested on: Bifidobacterium infantis 15697; experiment: as above; format: cell-based; settings: 0.5% oligosaccharide preparation, anaerobic, 5 days, 37° C
[12] = tested on: Bifidobacterium adolescentis 15706; experiment: as above; format: cell-based; settings: 0.5% oligosaccharide preparation, anaerobic, 5 days, 37° C
[13] = tested on: Bifidobacterium gallicum 49850; experiment: as above; format: cell-based; settings: 0.5% oligosaccharide preparation, anaerobic, 5 days, 37° C
[14] = tested on: Lactobacillus GG 53103; experiment: as above; format: cell-based, Lactobacillus rhamnosus GG; settings: 0.5% oligosaccharide preparation, anaerobic, 5 days, 37° C
[15] = tested on: Bifidobacterium longum 15707; experiment: as above; format: cell-based; settings: 0.5% oligosaccharide preparation, anaerobic, 5 days, 37° C
[16] = tested on: Enterobacter aerogenes 35028; experiment: as above; format: cell-based; settings: 0.5% oligosaccharide preparation, anaerobic, 5 days, 37° C
[17] = tested on: Salmonella typhimurium 14028; experiment: as above; format: cell-based, Salmonella choleraesuis (typhimurium); settings: 0.5% oligosaccharide preparation, anaerobic, 5 days, 37° C
[18] = tested on: Bifidobacterium catenulatum 27539; experiment: as above; format: cell-based; settings: 0.5% oligosaccharide preparation, anaerobic, 5 days, 37° C
[19] = tested on: Bifidobacterium ruminantium 4939; experiment: as above; format: cell-based; settings: 0.5% oligosaccharide preparation, anaerobic, 5 days, 37° C
[20] = tested on: Escherchia coli 8739; experiment: as above; format: cell-based, Escherichia coli; settings: 0.5% oligosaccharide preparation, anaerobic, 5 days, 37° C
[21] = tested on: Bifidobacterium adolescentis 15703; experiment: as above; format: cell-based; settings: 0.5% oligosaccharide preparation, anaerobic, 5 days, 37° C
[22] = tested on: Lactobacillus acidophilus 4356; experiment: as above; format: cell-based; settings: 0.5% oligosaccharide preparation, anaerobic, 5 days, 37° C
[23] = tested on: Bifidobacterium thermophilum 25866; experiment: as above; format: cell-based; settings: 0.5% oligosaccharide preparation, anaerobic, 5 days, 37° C

O=C[C@H](O)[C@@H](O)[C@H](O)[C@H](O)CO [D-glucose]
Growth (OD600 nm), Bifidobacterium breve 15698 [1]: +++ (OD600 nm ≧ 0.60, high growth)
Growth (OD600 nm), Clostridium perfringens 13124 [2]: +++ (OD600 nm ≧ 0.60, high growth)
Growth (OD600 nm), Bifidobacterium boum 27917 [3]: +++ (OD600 nm ≧ 0.60, high growth)
Growth (OD600 nm), Bifidobacterium adolescentis 15704 [4]: +++ (OD600 nm ≧ 0.60, high growth)
Growth (OD600 nm), Bifidobacterium bifidum 29521 [5]: +++ (OD600 nm ≧ 0.60, high growth)
Alternan (Rel. %) [6]: 53 Rel. %
Growth (OD600 nm), Lactobacillus casei 393 [7]: +++ (OD600 nm ≧ 0.60, high growth)
Growth (OD600 nm), Bacteroides thetaiotaomicron 29148 [8]: ++ (OD600 nm 0.31–0.59, medium growth)
Growth (OD600 nm), Bifidobacterium adolescentis 15705 [9]: +++ (OD600 nm ≧ 0.60, high growth)
Growth (OD600 nm), Bifidobacterium pseudocatenulatum 27919 [10]: +++ (OD600 nm ≧ 0.60, high growth)
Growth (OD600 nm), Bifidobacterium infantis 15697 [11]: +++ (OD600 nm ≧ 0.60, high growth)
Growth (OD600 nm), Bifidobacterium adolescentis 15706 [12]: +++ (OD600 nm ≧ 0.60, high growth)
Growth (OD600 nm), Bifidobacterium gallicum 49850 [13]: +++ (OD600 nm ≧ 0.60, high growth)
Growth (OD600 nm), Lactobacillus GG 53103 [14]: +++ (OD600 nm ≧ 0.60, high growth)
Growth (OD600 nm), Bifidobacterium longum 15707 [15]: +++ (OD600 nm ≧ 0.60, high growth)
Growth (OD600 nm), Enterobacter aerogenes 35028 [16]: +++ (OD600 nm ≧ 0.60, high growth)
Growth (OD600 nm), Salmonella typhimurium 14028 [17]: ++ (OD600 nm 0.31–0.59, medium growth)
Growth (OD600 nm), Bifidobacterium catenulatum 27539 [18]: +++ (OD600 nm ≧ 0.60, high growth)
Growth (OD600 nm), Bifidobacterium ruminantium 4939 [19]: +++ (OD600 nm ≧ 0.60, high growth)
Growth (OD600 nm), Escherchia coli 8739 [20]: +++ (OD600 nm ≧ 0.60, high growth)
Growth (OD600 nm), Bifidobacterium adolescentis 15703 [21]: +++ (OD600 nm ≧ 0.60, high growth)
Growth (OD600 nm), Lactobacillus acidophilus 4356 [22]: +++ (OD600 nm ≧ 0.60, high growth)
Growth (OD600 nm), Bifidobacterium thermophilum 25866 [23]: +++ (OD600 nm ≧ 0.60, high growth)

OC[C@H]1O[C@@](CO)(O[C@H]2O[C@H](CO[C@H]3O[C@H](CO)[C@@H](O)[C@H](O)[C@H]3O)[C@@H](O)[C@H](O)[C@H]2O)[C@@H](O)[C@@H]1O [theanderose]
Alternan (Rel. %) [6]: 42 Rel. %

O=C(CO)[C@@H](O[C@H]1O[C@H](CO)[C@@H](O)[C@H](O)[C@H]1O)[C@H](O)[C@H](O)CO [turanose]
Alternan (Rel. %) [6]: 57 Rel. %

OC[C@@H](O)[C@H](O)[C@@H](O)CO [xylitol]
Alternan (Rel. %) [6]: 97 Rel. %

OC[C@H]1O[C@H](O[C@H]2O[C@H](CO)[C@@H](O)[C@H](O)[C@H]2O)[C@H](O)[C@@H](O)[C@@H]1O [α,α-trehalose]
Alternan (Rel. %) [6]: 102 Rel. %
acceptor strength for alternansucrase, in words [6]: not an acceptor

CO[C@H]1O[C@H](CO)[C@H](O)[C@H](O)[C@H]1O [α-methyl-D-galactoside, α-methyl-D-galactopyranoside]
Alternan (Rel. %) [6]: 73 Rel. %

CO[C@H]1O[C@H](CO)[C@@H](O)[C@H](O)[C@H]1O [α-methyl-D-glucoside, α-methyl-D-glucopyranoside]
Alternan (Rel. %) [6]: 20 Rel. %

CO[C@H]1O[C@H](CO)[C@@H](O)[C@H](O)[C@@H]1O [α-methyl-D-mannoside, α-methyl-D-mannopyranoside]
Alternan (Rel. %) [6]: 70 Rel. %

CCCCCCCCCCCCO[C@@H]1O[C@H](CO)[C@@H](O[C@H]2O[C@H](CO)[C@@H](O)[C@H](O)[C@H]2O)[C@H](O)[C@H]1O [β-dodecyl maltoside]
Alternan (Rel. %) [6]: 83 Rel. %

CO[C@@H]1O[C@H](CO)[C@H](O)[C@H](O)[C@H]1O [β-methyl-D-galactoside, β-methyl-D-galactopyranoside]
Alternan (Rel. %) [6]: 94 Rel. %

CO[C@@H]1O[C@H](CO)[C@@H](O)[C@H](O)[C@H]1O [β-methyl-D-glucoside]
Alternan (Rel. %) [6]: 60 Rel. %

CO[C@@H]1O[C@H](CO)[C@@H](O)[C@H](O)[C@@H]1O [β-methyl-D-mannoside]
Alternan (Rel. %) [6]: 89 Rel. %

COC1OCC(O)C(O)C1O [β-methyl-D-xyloside]
Alternan (Rel. %) [6]: 96 Rel. %

CCCCCCCCO[C@@H]1O[C@H](CO)[C@@H](O)[C@H](O)[C@H]1O [β-octyl D-glucoside, β-octyl-D-glucopyranoside]
Alternan (Rel. %) [6]: 52 Rel. %

gentiobiose
Alternan (Rel. %) [6]: 25 Rel. %
acceptor strength for alternansucrase, in words [6]: surprisingly good acceptor

maltotriose
Alternan (Rel. %) [6]: 65 Rel. %
